Experimental findings from patent publication US20240002401A1, “IMIDAZOTHIAZOLE COMPOUNDS, PHARMACEUTICAL COMPOSITIONS, AND USES THEREOF” (GUANGZHOU HENOVCOM BIOSCIENCE CO., LTD., priority 2020, published 2024) are described below.

Data set [1] is described as follows: Pharmacokinetics test in mice. The format is in vivo. The conditions noted are these: male SD mice; for F: absolute bioavailability, oral 5 mg/kg vs intravenous 1 mg/kg; for AUC / half-life: mouse, plasma. From the text:
Pharmacokinetics Test in Mice
Male SD mice were selected for pharmacokinetics test study, plasma concentration at different time points were quantitatively determined by LC/MS/MS method after the mice were intravenously injected and orally administrated with the compounds to be tested, thereby evaluating pharmacokinetics characteristic of the compounds to be tested in SD mice.
SD mice (free food and drink, 6 to 8 weeks old) were intravenously administrated via a foot injection with a clear solution of the compounds to be tested, alternatively, SD mice (free food and drink, 6 to 8 week old) were intragastrically administrated with a suspension of the compounds to be tested. Blood samples were collected from the tail veins of the mice 0.083, 0.25, 0.5, 1, 2, 4, 6, 8, 10, and 24 hours after administration, and each sampling was 0.15 mL. All collected blood samples were placed into centrifuge tubes with EDTA-K2, turned upside and down to mix the anticoagulant with the blood well. The plasma was separated by centrifugation at 1500 g for 10 min at 4° C. within […]. The plasma sample was transferred into a new centrifuge tube and stored at −90° C. to −60° C. until the analysis was performed. LC-MS/MS was used to measure the blood concentration of the compounds to be tested of the present disclosure, and the pharmacokinetic parameters, as well as absolute bioavailability, were calculated by a non-compartment model in Pharsight Phoenix 8.0 software, as shown in Table 2.

The target of the next data set is ATX (Homo sapiens, UniProt Q13822). Put plainly: Enzyme activity screening in vitro with LPC as substrate (Amplex Red fluorescence). Type of data set: biochemical. Conditions: inhibitory activity against ATX. The source says:
Analysis In Vitro: LPC was Used as Substrate for Screening Enzyme Activity
Principle: Lysophosphatidylcholine (LPC) as substrate is hydrolyzed by using the activity of lysoPLD enzyme, to produce lysophosphatidic acid (LPA) and choline, which is oxidized to produce H2O2 under the action of choline oxidase. In presence of horse radish peroxidase (HPR), Amplex Red reagent is reacted with H2O2 in a quantitative chemistry ratio of 1 to 1, to produce strong fluorescence products, which are detected by a fluorescent quantitative test.
20 μl of the above mixed solution 1 was added to each hole of an experiment board, […]. The compounds diluted with DMSO were transferred into an experiment board with Echo550. The reaction buffer solution was used for preparing a mixed solution 2 of […] LPC and 400 μM Amplex Red in a final concentration. 20 μl of the above mixed solution 2 was added to each hole of the experiment board. After addition, the experiment board was shook for 30 seconds on a shaker, and incubated for 30 minutes. Envision was used to read the fluorescence signals with an exciting light at 530 nm and emitted light at 590 nm.

Where [2] appears, read: Intravenous injection (1 mg/kg).

For the compound `CCc1nc2sc(C3CCN(CC(=O)N4CC(O)C4)CC3)cn2c1N(CC)c1nc(-c2ccc(F)cc2)c(C#N)s1` [Embodiment 1, 2-(ethyl(6-ethyl-2-(1-(2-(3-hydroxyazetidin-1-yl)-2-oxoethyl)piperidin-4-yl)imidazo[2,1-b]thiazol-5-yl)amino)-4-(4-fluorophenyl)thiazole-5-carbonitrile], the F in data set [1] was 70%. In data set [1] (setting [2]), this compound had an AUC of 1670 ng·h/mL and a half-life of 4.18 h. Besides, in data set [1] (Oral administration (5 mg/kg)), the AUC came out at 5800 ng·h/mL and the half-life is 3.21 h. The compound further had an IC50 at ATX of 0.01 to 100 nM.
On to `CCc1nc2sc(C3CCN(CC(=O)N4CC(O)C4)CC3)cn2c1N(CC1CC1)c1nc(-c2ccc(F)cc2)c(C#N)s1` [Embodiment 2, 2-(cyclopropylmethyl(6-ethyl-2-(1-(2-(3-hydroxyazetidin-1-yl)-2-oxoethyl)piperidin-4-yl)imidazo[2,1-b]thiazol-5-yl)amino)-4-(4-fluorophenyl) thiazole-5-carbonitrile], for which the F in data set [1] came to 54%. For the same compound, in data set [1] (setting [2]), the AUC turned out to be 972 ng·h/mL and the half-life is 2.84 h. In data set [1] (Oral administration (5 mg/kg)), this compound showed an exposure (AUC) of 2720 ng·h/mL and a half-life of 3.63 h. At ATX, this compound had an IC50 of 0.01 to 100 nM.
`[2H]C([2H])([2H])C([2H])([2H])N(c1nc(-c2ccc(F)cc2)c(C#N)s1)c1c(CC)nc2sc(C3CCN(CC(=O)N4CC(O)C4)CC3)cn12` [Embodiment 7, 2-((ethyl-d5)(6-ethyl-2-(1-(2-(3-hydroxyazetidin-1-yl)-2-oxoethyl)piperidin-4-yl)imidazo[2,1-b]thiazol-5-yl)amino)-4-(4-fluorophenyl)thiazole-5-carbonitrile]: the F in data set [1] amounted to 65%. Also, in data set [1] (setting [2]), the AUC was 1480 ng·h/mL and the half-life was 3.97 h. In data set [1] (Oral administration (5 mg/kg)), the exposure (AUC) came out at 4810 ng·h/mL and the half-life was 2.81 h. This compound gave a half-maximal inhibitory concentration (IC50) against ATX of 0.01 to 100 nM.
In data set [1], `CCc1nc2sc(C3CCN(CC(=O)NCC(F)F)CC3)cn2c1N(CC)c1nc(-c2ccc(F)cc2)c(C#N)s1` [Embodiment 11, 2-(4-(5-((5-cyano-4-(4-fluorophenyl)thiazol-2-yl)(ethyl)amino)-6-ethylimidazo[2,1-b]thiazol-2-yl)piperidin-1-yl)-N-(2,2-difluoroethyl)acetamide] yielded an F of 42%. In data set [1] (setting [2]), this compound showed an exposure (AUC) of 907 ng·h/mL and a half-life of 4.69 h. In data set [1] (Oral administration (5 mg/kg)), the exposure (AUC) came to 1730 ng·h/mL and the half-life was 4.4 h. The compound also displayed a 50% inhibitory concentration (IC50) at ATX of 0.01 to 100 nM.
In data set [1], `CCc1nc2sc(C3CCN(CC(=O)NC4COC4)CC3)cn2c1N(CC)c1nc(-c2ccc(F)cc2)c(C#N)s1` [Embodiment 21, 2-(4-(5-((5-cyano-4-(4-fluorophenyl)thiazol-2-yl)(ethyl)amino)-6-ethylimidazo[2,1-b]thiazol-2-yl)piperidin-1-yl)-N-(3-oxacyclobutyl)acetamide] came in with an F of 114%. Besides, in data set [1] (setting [2]), the AUC turned out to be 1040 ng·h/mL and the half-life was 3.32 h. Moreover, in data set [1] (Oral administration (5 mg/kg)), the exposure (AUC) was 5500 ng·h/mL and the half-life is 2.61 h. This compound had a half-maximal inhibitory concentration (IC50) at ATX of 0.01 to 100 nM.
The compound `CCc1nc2sc(C3CCN(CC(=O)N4CCOCC4)CC3)cn2c1N(CC)c1nc(-c2ccc(F)cc2)c(C#N)s1` [Embodiment 22, 2-(ethyl(6-ethyl-2-(1-(2-morpholino-2-oxoethyl)piperidin-4-yl)imidazo[2,1-b]thiazol-5-yl)amino)-4-(4-fluorophenyl)thiazole-5-carbonitrile] yielded a F in data set [1] of 39%. In data set [1] (setting [2]), this compound had an AUC of 649 ng·h/mL and a half-life of 4.56 h. In data set [1] (Oral administration (5 mg/kg)), this compound gave an AUC of 1260 ng·h/mL and a half-life of 4.19 h. Also, on ATX, the 50% inhibitory concentration (IC50) was in the range of 0.01 to 100 nM.
The compound `CCc1nc2sc(C3CCN(CC(=O)NC4CCOCC4)CC3)cn2c1N(CC)c1nc(-c2ccc(F)cc2)c(C#N)s1` [Embodiment 23, 2-(4-(5-((5-cyano-4-(4-fluorophenyl)thiazol-2-yl)(ethyl)amino)-6-ethylimidazo[2,1-b]thiazol-2-yl)piperidin-1-yl)-N-(tetrahydro-2H-pyran-4-yl)acetamide] registered a F in data set [1] of 70%. Moreover, in data set [1] (setting [2]), the AUC worked out at 1180 ng·h/mL and the half-life was 4.18 h. Also, in data set [1] (Oral administration (5 mg/kg)), the AUC came out at 4190 ng·h/mL and the half-life is 3.93 h. Also, at ATX, the IC50 lay in the range of 0.01 to 100 nM.
`CCc1nc2sc(C3CCN(CC(=O)N4CC(O)C4)CC3)cn2c1N(c1nc(-c2ccc(F)cc2)c(C#N)s1)C1CC1` [Embodiment 24, 2-(cyclopropyl(6-ethyl-2-(1-(2-(3-hydroxyazetidin-1-yl)-2-oxoethyl)piperidin-4-yl)imidazo[2,1-b]thiazol-5-yl)amino)-4-(4-fluorophenyl)thiazole-5-carbonitrile] registered a F in data set [1] of 43%. Also, the AUC in data set [1] (setting [2]) came to 1170 ng·h/mL; in data set [1] (Oral administration (5 mg/kg)), 2520 ng·h/mL. The results for the half-life in data set [1] (setting [2]) and in data set [1] (Oral administration (5 mg/kg)) were 2.14 h and 2.23 h, respectively. At ATX, this compound had an IC50 of 100 to 500 nM.
In turn, `CCc1nc2sc(C3CCN(CC(=O)N4CC(O)C4)CC3)cn2c1N(c1nc(-c2ccc(F)cc2)c(C#N)s1)C(C)C` [Embodiment 25, 2-((6-ethyl-2-(1-(2-(3-hydroxyazetidin-1-yl)-2-oxoethyl)piperidin-4-yl)imidazo[2,1-b]thiazol-5-yl)(isopropyl)amino)-4-(4-fluorophenyl)thiazole-5-carbonitrile] gave a F in data set [1] of 55%. Also, in data set [1] (setting [2]), the AUC worked out at 732 ng·h/mL and the half-life is 3.11 h. In data set [1] (Oral administration (5 mg/kg)), this compound had an exposure (AUC) of 1900 ng·h/mL and a half-life of 3.83 h. Also, on ATX, the 50% inhibitory concentration (IC50) was 0.01 to 100 nM.
